# Experimental data taken from patent publication US8519110B2, “mRNA cap analogs” (Board of Supervisors of Louisiana State University And …, priority 2008, dated 2013).
# Read-outs that look alike come from different tables or passages of the source.
# How the values were obtained:
# [1] = test system: rabbit reticulocyte lysate system; assay: In vitro translation efficiency of capped luciferase mRNA with 31-base poly(A) tail, method II transcripts; type: biochemical; conditions: for In vitro translational efficiency (method II): Table 3, relative to m^7GpppG-capped mRNA = 1.0; for Translation efficiency in comparison to m^7GpppG-LUC-(A)31 mRNA, Experiment No. 1: experiment 1; for Translation efficiency in comparison to m^7GpppG-LUC-(A)31 mRNA, Experiment No. 2: experiment 2; for Translation efficiency in comparison to m^7GpppG-LUC-(A)31 mRNA, Experiment No. 3: experiment 3; for Translation efficiency in comparison to m^7GpppG-LUC-(A)31 mRNA, Experiment No. 4: experiment 4; for Translation efficiency in comparison to m^7GpppG-LUC-(A)31 mRNA, Mean: mean of experiments; for Translation efficiency in comparison to m^7GpppG-LUC-(A)31 mRNA, Experiment No. 5: experiment 5
# In short: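 Cap-analog-primed SP6 transcripts (β-globin 5′-UTR, firefly luciferase, 31-A tail; 0.5 mM cap analog, 0.1 mM GTP) were translated in nuclease-treated rabbit reticulocyte lysate for 60 min at 30° C at 0.25–4 μg/ml mRNA. Efficiency is the slope of luciferase activity versus mRNA concentration, relative to m^7GpppG-capped mRNA (1.0).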
# Human DcpS = target: T1, Human DcpS (Homo sapiens, UniProt Q96C86); assay: Assay of susceptibility to DcpS (RP HPLC); type: biochemical
# T1 construct: made in house; host or cells: Escherichia coli
# T1 sequence (Q96C86 1-337): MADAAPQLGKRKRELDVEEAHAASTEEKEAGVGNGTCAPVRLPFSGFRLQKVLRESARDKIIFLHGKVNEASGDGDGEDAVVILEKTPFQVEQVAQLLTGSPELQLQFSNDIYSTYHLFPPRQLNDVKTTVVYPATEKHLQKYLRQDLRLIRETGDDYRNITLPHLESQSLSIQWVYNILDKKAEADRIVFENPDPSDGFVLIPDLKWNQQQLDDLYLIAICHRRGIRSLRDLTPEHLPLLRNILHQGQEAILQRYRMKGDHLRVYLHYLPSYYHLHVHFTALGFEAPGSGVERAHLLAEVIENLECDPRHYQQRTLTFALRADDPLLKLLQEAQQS
# In short: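 E. coli-expressed human DcpS reacted with 40 μM cap analog at 30° C in 50 mM Tris-HCl pH 7.9, 20 mM MgCl2, 60 mM (NH4)2SO4. Samples taken at 10, 30, 60 and 120 min, heat-inactivated, and analysed by RP HPLC (methanol gradient in 0.1 M KH2PO4 pH 6.0).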
# [2] = target: cap-dependent translation of luciferase mRNA in reticulocyte lysate; assay: Inhibition of cap-dependent translation in vitro by free cap analogs; type: biochemical, rabbit
# Experimental: In vitro translation reactions were performed in 12.5 μl for 60 min at 30° C. under conditions favorable for cap-dependent translation. In some cases, the reaction mixture was incubated for 60 min at 30° C. prior to adding the dinucleotide cap analog (inhibitor) and m2^7,3′-OGppG-capped luciferase mRNA to start translation. In other cases, to analyze biological stability, the cap analog was incubated in the translation mixture for 60 min at 30° C. prior to adding the luciferase mRNA to start translation. A typical reaction mixture contained 56% reticulocyte lysate, the 20 “standard” amino acids (0.01 mM each), MgCl2 (1.2 mM), potassium acetate (170 mM), RiboLock Ribonuclease Inhibitor (0.32 U/μl), cap analog solution ( 1/10 of total reaction volume), and m2^7,3′-OGpppG-capped luciferase RNA. […] Reactions were performed with cap analog concentrations ranging from 0.12 to 100 μM. Luciferase activity was measured in a luminometer. […] The program OriginPro8 (OriginLab) was used for curve fitting with the equation qLUC=Z/(1+I/IC50)+N, where qLUC is the activity of luciferase synthesized in the presence of cap analog, Z is the activity of luciferase synthesized in the absence of cap analog, N is the activity of luciferase synthesized in a cap-independent manner, and I is the cap analog concentration.
# Two type of experiments were carried out. In one set of experiments (condition A), a cap analog was added to the translation system together with luciferase mRNA. In the other set of experiments (condition B), the cap analog was incubated in the translation system for 60 min before addition of mRNA. […] There was a correlation between the resistance to hydrolysis by DcpS and the stability of analogs in the translation system.
# [3] = Table 3, cap analog added together with mRNA, read-out: Inhibition of in vitro translation (IC50), condition A
# [4] = Table 3, cap analog preincubated 60 min in lysate, read-out: Inhibition of in vitro translation (IC50), condition B
# [5] = 40 μM cap analog, 30° C., up to 120 min
# [6] = cap analog added together with luciferase mRNA, read-out: Inhibition of in vitro translation (IC50), condition A
# [7] = cap analog incubated in translation system 60 min before addition of mRNA, read-out: Inhibition of in vitro translation (IC50), condition B
In vitro translational efficiency (method II) [1],"Translation efficiency in comparison to m^7GpppG-LUC-(A)31 mRNA, Experiment No. 1 [1]","Translation efficiency in comparison to m^7GpppG-LUC-(A)31 mRNA, Experiment No. 2 [1]","Translation efficiency in comparison to m^7GpppG-LUC-(A)31 mRNA, Experiment No. 3 [1]","Translation efficiency in comparison to m^7GpppG-LUC-(A)31 mRNA, Experiment No. 4 [1]","Translation efficiency in comparison to m^7GpppG-LUC-(A)31 mRNA, Mean [1]",Susceptibility to DcpS (Human DcpS; Table 3),"IC50 [2, 3]","IC50 [2, 4]","Translation efficiency in comparison to m^7GpppG-LUC-(A)31 mRNA, Experiment No. 5 [1]",Susceptibility to DcpS (Human DcpS; [5]),"IC50 [2, 6]","IC50 [2, 7]",Molecule
2.24 ± 0.28,2.05,2.09,2.16,2.65,2.24,hydrolyzed,8.4 ± 1.4 µM,14.7 ± 1.6 µM,–,–,–,–,"CO[C@@H]1[C@H](O)[C@@H](COP(=O)(O)OP(O)(=[Se])OP(=O)(O)OC[C@H]2O[C@@H](n3cnc4c(=O)[nH]c(N)nc43)[C@H](O)[C@@H]2O)O[C@H]1n1c[n+](C)c2c(=O)[nH]c(N)nc21 (single isomer, unassigned) [m2^7,2′-OGppSepG (D1), m2^7,2′-OGppSepG]"
2.31 ± 0.22,2.53,2.31,2.09,–,2.31,hydrolyzed,3.9 ± 0.5 µM,11.4 ± 7.2 µM,–,–,–,–,"CO[C@@H]1[C@H](O)[C@@H](COP(=O)(O)OP(O)(=[Se])OP(=O)(O)OC[C@H]2O[C@@H](n3cnc4c(=O)[nH]c(N)nc43)[C@H](O)[C@@H]2O)O[C@H]1n1c[n+](C)c2c(=O)[nH]c(N)nc21 (single isomer, unassigned) [m2^7,2′-OGppSepG (D2), m2^7,2′-OGppSepG]"
1.00,1.00,1.00,1.00,1.00,1.00,hydrolyzed,8.3 ± 0.2 µM,35.1 ± 10.8 µM,1.00,hydrolyzed,8.3 ± 0.2 µM,35.1 ± 10.8 µM,"Cn1c[n+]([C@@H]2O[C@H](COP(=O)(O)OP(=O)(O)OP(=O)(O)OC[C@H]3O[C@@H](n4cnc5c(=O)[nH]c(N)nc54)[C@H](O)[C@@H]3O)[C@@H](O)[C@H]2O)c2nc(N)[nH]c(=O)c21 [m^7GpppG, m^7G(5′)ppp(5′)G, reference compound]"
–,–,–,–,–,3.56,–,–,–,3.56,resistant,3 ± 0.1 µM,3 ± 0.2 µM,m^7GppBH3pm^7G
